For the data set the following is noted: Liquid; for mass density: 298.2 K, 101.33 kPa, Vibrating tube method; for vapor or sublimation pressure / Normal boiling temperature: Ebulliometric method (Recirculating still).

Numbers after ± are expanded uncertainties.

As for `Cc1ccccc1C` [1,2-dimethylbenzene], the mass density is reported as 875.66 ± 0.24 kg/m3 and the Normal boiling temperature worked out at 144.4 ± 1 °C. The “vapor or sublimation pressure” value (417.5 K) came out at 101.3 ± 1.1 kPa.
Turning to `Cc1ccccc1` [toluene], the mass density was determined as 862.18 ± 0.24 kg/m3 and the Normal boiling temperature is 110.2 ± 1 °C. Besides, the “vapor or sublimation pressure” value (383.4 K) was 101.3 ± 1.1 kPa.
`c1ccccc1` [benzene]: the mass density is 873.66 ± 0.24 kg/m3 and the Normal boiling temperature came to 80.2 ± 1 °C. Also, the “vapor or sublimation pressure” value (353.3 K) was 101.3 ± 1.1 kPa.
`CCCCCCCCC` [nonane]: the mass density was 714.07 ± 0.24 kg/m3 and the Normal boiling temperature turned out to be 150.7 ± 1 °C. In addition, the “vapor or sublimation pressure” value (423.8 K) amounted to 101.3 ± 1.1 kPa.
For the molecule `CCCCCCC` [heptane], the mass density came out at 679.52 ± 0.24 kg/m3 and the Normal boiling temperature worked out at 98.2 ± 1 °C. Under “371.4 K”, the “vapor or sublimation pressure” value is listed as 101.3 ± 1.1 kPa.
